{"source": "patent US20240277637A1", "about": "“CAPSAICIN DERIVATIVES IN THE TREATMENT OF IDIOPATHIC PULMONARY FIBROSIS” (aXichem AB, priority 2021, published 2024)", "test_system": "human corneal epithelial cells", "assay": "Proliferation assay, PDGF-stimulated corneal epithelial proliferation (Example 1)", "type": "cell-based", "conditions": "for IC50: Homo sapiens, Corneal epithelial cell, 10 ng/ml PDGF, 72 hours", "procedure": "Primary isolated human corneal epithelial cells; Normal, Human cells (ATCC® PCS-700-010™) were maintained in culture at 37° C. with 5% CO2 and 95% humidity in serum reduced (5% fetal calf serum) modified promocell media (MPM) supplemented with 4 ng/ml fibronectin (FN), 2 ng/ml human recombinant vascular endothelial growth factor (VEGF) and 4 ng/ml basic fibroblast growth factor (bFGF).\nCorneal cells were harvested by trypsinization at 37° C. and neutralized with trypsin-neutralizing solution. A suspension of 50,000 cells in MPM/DMEM was added to 25 ml flasks. The cells were incubated with phenylcapsaicin or SU9518 for 1 hour in cytokine-free medium at standard conditions and incubated for another 72 hours in the presence of final mediums (either with 10 ng/ml PDGF-AB+4 ng/ml FN, or with 2 ng/ml VEGF+4 ng/ml bFGF+4 ng/ml FN). The cells were then dispersed in trypsin, resuspended, and counted in a coulter counter.", "note": "Where two headings read alike, the source gives them in different places."}
{"compound": "COc1cc(CNC(=O)CCCCC#Cc2ccccc2)ccc1O", "note": "[Compound 2, N-(4-hydroxy-3-methoxybenzyl)-7-phenylhept-6-ynamide]", "values": [{"measurement": "IC50", "setting": "read-out: IC50, PDGF-induced epithelial proliferation", "result": "~1", "unit": "µM"}, {"measurement": "IC50", "setting": "read-out: IC50, PDGF-induced proliferation", "result": "~1", "unit": "µM"}, {"measurement": "selectivity for PDGF pathway", "setting": "PDGF- versus VEGF+bFGF-induced proliferation, corneal cells", "result": "work selectively on the PDGF pathway"}]}
